Source: patent US20260027096A1, “PHD INHIBITORS” (Oxford University Innovation Limited, priority 2023, published 2026)
“Also recorded” adds a separate entry of the source.

Legend:
[1] = tested on: THP-1 cells in NBSGW recipient mice; assay: THP-1 xenotransplantation in NBSGW mice; assay type: in vivo; conditions: 30 mg/kg i.p. twice daily for 21 days
Description: (A) 100,000 THP-1 cells were transplanted into NBSGW recipient mice. […] (B-C) Percentage of human CD45+CD33+ and human CD45+CD14+ cells in the BM and spleen, respectively (n=4-5). (D) 100,000 OCI-AML3 cells were transplanted into NBSGW recipient mice. […] (E) Percentage of human CD45+CD33+CD14+ cells in the liver, BM and PB, respectively (n=3-7). (F) 2,000 LSK cells from iMLL-AF9;Control mice were sorted and transplanted into irradiated recipient mice. […] (H) LDA in secondary recipients transplanted with indicated doses of CD45.2+BM cells from primary recipients (n=9-10 per dose). (I) Plot showing Poisson statistical analysis. Circles represent the percentages of negative mice for each cell dose, triangles represent any data values with zero negative responses. Solid lines indicate the best-fit linear model, and dotted lines represent 95% CIs. LSC frequencies were calculated using the ELDA software 121. (J) Steady-state analyses of 8-to 10-week-old C57B16 mice treated with IOX5 or vehicle control 2× daily via i.p. injection for 14 days (n=5-7). (K) PB counts (n=6). (L) Total BM cellularity (n=5-9). (M) Total numbers of HSC, MPP, HPC-1 and HPC-2 populations (n=5-7). Data represent mean±SEM; * p<0.05; ** p<0.01; *** p<0.001; **** p<0.0001.
100,000 THP-1 cells, 100,000 OCI-AM3 cells or 100,000 MV411 cells (for combination experiments) were tail vein injected into non-irradiated 10-to 12-week-old mixed gender NBSGW mice and began drug treatment 14 days after transplantation. […] Mice were culled 5 weeks after transplantation.
Next, it was examined whether IOX (68, example 46)5 has a therapeutic impact on MLL-AF9-independent AML. […] Therefore, IOX5 (68, example 46) compromises both MLL-rearranged and non-MLL AML in vivo.

[2] = tested on: BNIP3 mRNA in human AML cells; assay: qPCR of BNIP3 (BAX, BAK) in human AML cells; assay type: cell-based; conditions: for BNIP3 mRNA expression: MOLM13, OCI-AML3, MV411 and THP-1 cells; for BNIP3, BAX and BAK transcripts (qPCR): MOLM-13 cells, 50 μM
Procedure: RNA was isolated using Direct-zol RNA Miniprep kit (Zymo Research, #R2051) and reverse transcribed using High-Capacity cDNA Reverse Transcription Kit (Applied Biosystems). For real-time quantitative PCR (qPCR), 5 ng of cDNA, 5 μL of PowerUp SYBR Green MasterMix (Applied Biosystems) and 2 pmol of primers were used per well of 384-well plate. Reactions were performed in triplicate using C1000 Thermocycler 384well (BioRad). Gene expression was quantified using comparative AA-Ct method and ACTB was used as the housekeeping gene. Data is expressed as log 2 fold change in comparison to control sample and represents results of three independent experiments measured in duplicate.
Given that the primary function of PHD2 is to promote HIF-α degradation, HIF-1α levels were measured following the treatment of AML cells with PHD inhibitors. […] To investigate whether HIF-α mediates the anti-leukaemic effects of PHD inhibition, Meis1/Hoxa9-transformed AML cells lacking both Hif1α and Hif2α and control cells were employed (Vukovic et al., 2015). […] Next, to investigate a molecular mechanism behind the anti-leukaemic effect of PHD inhibition, HIF-dependent transcripts that were dysregulated were interrogated via (68, example 46)-treatment in murine cells.

[3] = tested on: HIF-1α in MOLM13, OCI-AML3, MV411 and THP-1 cells; assay: Western blot of HIF-1α in human AML cell lines; assay type: cell-based; conditions: for HIF-1α protein level (immunoblot): human AML cell lines, 50 μM, 48 hrs
Procedure: Total protein extracts (45 μg) were subjected to SDS-PAGE (NuPAGE™ 4-12% Bis-Tris Plus Gel, ThermoFisher Scientific, NP0323BOX) and then transferred onto a polyvinylidene difluoride membranes using wet transfer. Membranes were blocked in 5% milk-TBST (TBS with 0.1% Tween20) and probed with anti-HIF1-α (Novus Biological, NB100-105, 1:1000, ON at 4° C.) and anti-β-actin (Cell Signalling Technology, #3700, 1:10 000, ON at 4° C.). After incubation with appropriate horseradish peroxidase- coupled secondary antibody (Cell Signalling Technology, Anti-mouse IgG, #7076, 1:2000, 2 h at room temperature), proteins were detected with Clarity Western ECL Substrate (BioRad, #1705061) and acquired on the Amersham Imager 600 (GE Healthcare Life Sciences).
Equipped with currently available PHD inhibitors and newly generated IOX5 (68, example 46), the impact of pharmacological PHD inhibition on AML cells was assessed. […] Thus, while PHD inhibition consistently stabilises HIF-1α protein across all tested AML cell lines, HIF-2α stabilisation is variable and cell line-specific.

[4] = tested on: mouse iMLL-AF9- and Meis1Hoxa9-transformed AML cells; assay: Proliferation and apoptosis of murine iMLL-AF9 and Meis1Hoxa9 AML cells; assay type: cell-based; conditions: 50 μM
Description: (§1) Viable cells were counted by trypan blue exclusion at the indicated time points. To analyse cells undergoing apoptosis, cells were suspended in binding buffer containing PE-conjugated Annexin-V or FITC-conjugated Annexin-V, and either PI or DAPI.
To determine consequences of Daprodustat (2) and IOX5 (68, example 46) treatment on AML cells driven by the MLL-AF9→MEIS1/HOXA9 axis, mouse iMLL-AF9-and Meis1Hoxa9-transformed AML cells were employed, as well as human THP-1 cells, which harbour the MIL-AF9 translocation. […] Thus, providing compelling evidence that PHD inhibition compromises AML cells driven by the MLL-AF9→MEIS1/HOXA9 axis.

[5] = tested on: K562, OCI-AML3, KASUMI1, MV-4-11 and MOLM13 cells; assay: Proliferation and apoptosis of human leukaemic cell lines; assay type: cell-based; conditions: 50 μM
Description: as §1
To examine the impact of PHD inhibition in human leukaemia cells with other mutational backgrounds, different myeloid leukaemia cells were used, namely K562 (CML, with BCR-ABL translocation), OCL-AML3 cells (AML with DNMT3A, NRAS and NPM1 mutations), KASUMI1 cells (AML with AML-ETO translocation), MV-4-11 (AML with FLT3-ITD mutation), and MOLM13 (AML with FLT3-ITD mutation and MLL-AF9 translocation). […] Thus, multiple potent PHD inhibitors, with distinct mode of action, compromise leukaemic cells independently from their mutational status.

Row | SMILES | leukaemic burden [1] | BNIP3 mRNA expression [2] | BNIP3, BAX and BAK transcripts (qPCR) [2] | HIF-1α protein level over time (western blot) ([3]; THP-1 cells, continuous treatment for 96 hours) | HIF-1α protein level (immunoblot) [3] | apoptosis [4] | proliferation [4] | apoptosis [5] | proliferation [5] | tolerability of treatment [1]
1 | O=C(NCC1CCC(C(F)(F)F)CC1)c1c[nH]c(-n2cccn2)cc1=O (stereo not drawn) [IOX5] | significantly reduced leukaemic burden | strongly induced BNIP3 expression | upregulation of BNIP3 was found, as well as its downstream effectors BAX and BAK | substantially stabilised after 3-12 hours, its levels decreased between 24-48 hours, then increased 72-96 hours after treatment initiation | strongly stabilised HIF-1a; also recorded: increased HIF-1α levels | induced their apoptosis | compromised their proliferative capacity | induced their apoptosis | consistently compromised the proliferation | –
2 | O=C(O)CNC(=O)c1c(O)n(C2CCCCC2)c(=O)n(C2CCCCC2)c1=O [Daprodustat, daprodustat, reference compound] | significantly reduced leukaemic burden | strongly induced BNIP3 expression | upregulation of BNIP3 was found, as well as its downstream effectors BAX and BAK | – | strongly stabilised HIF-1a; also recorded: increased HIF-1α levels | induced their apoptosis | compromised their proliferative capacity | induced their apoptosis | consistently compromised the proliferation | well tolerated
